Read-outs that look alike come from different tables or passages of the source.
Tests used:
[1] = tested on: Zymoseptoria tritici; test: Fungicidal activity: leaf blotch of wheat (SEPTTR), disease control on wheat seedlings; assay type: in vivo; settings: for pest or weed control at 121.5 g/ha: low volume application, 121.5 g/H; for pest or weed control at 100 ppm: high volume application
Experimental: Technical grades of materials were dissolved in acetone, which were then mixed with nine volumes of water (H2O) containing 110 ppm Triton X-100. The fungicide solutions were applied onto wheat seedlings using an automated booth sprayer to run-off. All sprayed plants were allowed to air dry prior to further handling. All fungicides were evaluated using the aforementioned method for their activity vs. all target diseases, unless stated otherwise. Wheat leaf blotch and brown rust activity were also evaluated using track spray applications, in which case the fungicides were formulated as EC formulations, containing 0.1% Trycol 5941 in the spray solutions. Wheat plants (variety Yuma) were grown from seed in a greenhouse in 50% mineral soil/50% soil-less Metro mix until the first leaf was fully emerged, with 7-10 seedlings per pot. These plants were inoculated with an aqueous spore suspension of Zymoseptoria tritici either prior to or after fungicide treatments. After inoculation the plants were kept in 100% relative humidity (one day in a dark dew chamber followed by two to three days in a lighted dew chamber at 20° C.) to permit spores to germinate and infect the leaf. The plants were then transferred to a greenhouse set at 20° C. for disease to develop. When disease symptoms were fully expressed on the 1st leaves of untreated plants, infection levels were assessed on a scale of 0 to 100 percent disease severity. Percent disease control was calculated using the ratio of disease severity on treated plants relative to untreated plants.

[2] = tested on: Puccinia triticina; test: Fungicidal activity: wheat brown rust (PUCCRT), disease control on wheat seedlings; assay type: in vivo; settings: for pest or weed control at 121.5 g/ha: low volume application, 121.5 g/H; for pest or weed control at 100 ppm: high volume application
Experimental: Technical grades of materials were dissolved in acetone, which were then mixed with nine volumes of water (H2O) containing 110 ppm Triton X-100. The fungicide solutions were applied onto wheat seedlings using an automated booth sprayer to run-off. All sprayed plants were allowed to air dry prior to further handling. All fungicides were evaluated using the aforementioned method for their activity vs. all target diseases, unless stated otherwise. Wheat leaf blotch and brown rust activity were also evaluated using track spray applications, in which case the fungicides were formulated as EC formulations, containing 0.1% Trycol 5941 in the spray solutions. Wheat plants (variety Yuma) were grown from seed in a greenhouse in 50% mineral soil/50% soil-less Metro mix until the first leaf was fully emerged, with 7-10 seedlings per pot. These plants were inoculated with an aqueous spore suspension of Puccinia triticina either prior to or after fungicide treatments. After inoculation the plants were kept in a dark dew room at 22° C. with 100% relative humidity overnight to permit spores to germinate and infect the leaf. The plants were then transferred to a greenhouse set at 24° C. for disease to develop. Fungicide formulation, application and disease assessment followed the procedures as described in the Example A. Results of the evaluations are shown below in Table 4.

[3] = 24 h, 1 day protectant, read-out: SEPTTR disease control, 1DP, LV activity at 121.5 g/H
[4] = 72 h, 3 day curative, read-out: SEPTTR disease control, 3DC, LV activity at 121.5 g/H
[5] = 24 h, 1 day protectant, read-out: PUCCRT disease control, 1DP, LV activity at 121.5 g/H
[6] = 72 h, 3 day curative, read-out: PUCCRT disease control, 3DC, LV activity at 121.5 g/H
[7] = 24 h, 1 day protectant, read-out: SEPTTR disease control, 1DP, HV activity at 100 ppm
[8] = 72 h, 3 day curative, read-out: SEPTTR disease control, 3DC, HV activity at 100 ppm
[9] = 24 h, 1 day protectant, read-out: PUCCRT disease control, 1DP, HV activity at 100 ppm
[10] = 72 h, 3 day curative, read-out: PUCCRT disease control, 3DC, HV activity at 100 ppm

Row | Structure (SMILES) | pest or weed control at 121.5 g/ha [1, 3] [%] | pest or weed control at 121.5 g/ha [1, 4] [%] | pest or weed control at 121.5 g/ha [2, 5] [%] | pest or weed control at 121.5 g/ha [2, 6] [%] | pest or weed control at 100 ppm [1, 7] [%] | pest or weed control at 100 ppm [1, 8] [%] | pest or weed control at 100 ppm [2, 9] [%] | pest or weed control at 100 ppm [2, 10] [%]
1 | COc1cc[n+]([O-])c(C(=O)N[C@@H](C)C(=O)O[C@@H](C)C(c2ccc(C)c(F)c2)c2ccc(C)c(F)c2)c1O [Compound 19] | > 80 | > 80 | ≤ 80 | ≤ 80 |  |  |  | 
2 | COc1cc[n+]([O-])c(C(=O)N[C@@H](C)C(=O)O[C@@H](C)[C@H](c2ccc(F)cc2)c2ccc(F)cc2C)c1O [Compound 38] | > 80 | > 80 | ≤ 80 |  |  |  |  | 
3 | COc1cc(F)ccc1[C@@H](c1ccc(F)c(C)c1)[C@H](C)OC(=O)[C@H](C)NC(=O)c1c(O)c(OC)cc[n+]1[O-] [Compound 23] |  |  |  |  | > 80 | > 80 | > 80 | > 80
4 | COc1ccc(F)cc1C(c1cc(F)ccc1OC)[C@H](C)OC(=O)[C@H](C)NC(=O)c1c(O)c(OC)cc[n+]1[O-] [Compound 41] | ≤ 80 | ≤ 80 |  |  |  |  |  | 
5 | COc1cc[n+]([O-])c(C(=O)N[C@@H](C)C(=O)O[C@@H](C)[C@@H](c2ccccc2)c2ccc(F)cc2)c1O [Compound 2] | > 80 |  | > 80 | > 80 | > 80 | > 80 | > 80 | > 80
6 | COc1cc[n+]([O-])c(C(=O)N[C@@H](C)C(=O)O[C@@H](C)C(c2ccc(C)c(C)c2)c2ccc(C)c(C)c2)c1O [Compound 15] | > 80 | > 80 | ≤ 80 | ≤ 80 |  |  |  | 
7 | COc1ccccc1C(c1ccccc1OC)[C@H](C)OC(=O)[C@H](C)NC(=O)c1c(O)c(OC)cc[n+]1[O-] [Compound 30] | > 80 | > 80 | ≤ 80 | ≤ 80 |  |  |  | 
8 | COc1cc[n+]([O-])c(C(=O)N[C@@H](C)C(=O)O[C@@H](C)C(c2ccc(Cl)c(Cl)c2)c2ccc(Cl)c(Cl)c2)c1O [Compound 5] | > 80 | ≤ 80 | ≤ 80 |  | > 80 | ≤ 80 |  | 
9 | COc1cc[n+]([O-])c(C(=O)N[C@@H](C)C(=O)O[C@@H](C)C(c2ccc(F)c(F)c2OC)c2ccc(F)c(F)c2OC)c1O [Compound 12] | > 80 | > 80 | > 80 | ≤ 80 | > 80 | > 80 | > 80 | ≤ 80
10 | COc1cc[n+]([O-])c(C(=O)N[C@@H](C)C(=O)O[C@@H](C)C(O)(c2ccc(Cl)c(Cl)c2)c2ccc(Cl)c(Cl)c2)c1O [Compound 11] | > 80 | ≤ 80 |  |  | > 80 |  |  | 
11 | COc1cc[n+]([O-])c(C(=O)N[C@@H](C)C(=O)O[C@@H](C)C(c2cccc(F)c2)c2cccc(F)c2)c1O [Compound 35] | ≤ 80 | ≤ 80 |  |  |  |  |  | 
12 | COc1cc[n+]([O-])c(C(=O)N[C@@H](C)C(=O)O[C@@H](C)C(C)(c2ccccc2)c2ccccc2)c1O [Compound 27] | ≤ 80 | ≤ 80 |  |  | > 80 | > 80 |  | 

Source: patent US10111432B2, “Picolinamide N-oxide compounds with fungicidal activity” (Dow AgroSciences LLC, priority 2016, dated 2018)
